Molecules are shown by their SMILES. “And” between values parts separate entries of the source, which are not always exact repeats. Equal values may be shown once.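 All cell lines were grown in 96-well plates and treated with compound for 48 hours. GI50 = concentration required for 50% inhibition of growth. TGI is the concentration that stops growth completely.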

Test systems include HOP-62 NSCLC; SK-MEL-2 melanoma; SK-MEL-5 melanoma; MALME-3M melanoma; SK-MEL-28 melanoma; HCC-2998 colon; UACC-257 melanoma; OVCAR-4 ovarian; SN12C renal; SW-620 colon; HCT-15 colon; MOLT-4 leukemia; NCI-H522 lung.
Assay in all cases: inhibition of tumour cell growth, NCI panel, 48 h

Turning to `COc1ccc2c(c1)c1c(n2CCN(C)C)-c2ccccc2CC1`, the TGI is 30.5 µM in the experiment on HOP-62 NSCLC; 30.3 µM in the experiment with SK-MEL-2 melanoma; 32.7 µM with SK-MEL-5 melanoma; 35.5 µM in the experiment with MALME-3M melanoma; 29.1 µM in the experiment with SK-MEL-28 melanoma; 32.2 µM in the experiment on HCC-2998 colon. Moreover, the TGI in the experiment on UACC-257 melanoma is 30.3 µM; in the experiment with OVCAR-4 ovarian, 31.4 µM; with SN12C renal, 28.1 µM; in the experiment on SW-620 colon, 34.2 µM; with HCT-15 colon it was 26.8 µM; in the experiment with MOLT-4 leukemia, 35.8 µM. Besides, in the experiment on NCI-H522 lung, the TGI was determined as 32.9 µM.

Consider `CCOC(=O)N1N=C(/C(C)=N/OC)C(C)S1=O` (configuration not stated), for which the TGI in the experiment with HOP-62 NSCLC, with SK-MEL-2 melanoma, in the experiment with SK-MEL-5 melanoma, in the experiment with MALME-3M melanoma, in the experiment on SK-MEL-28 melanoma and with HCC-2998 colon was over 100 µM throughout. The TGI in the experiment with UACC-257 melanoma, in the experiment with OVCAR-4 ovarian, in the experiment with SN12C renal, in the experiment on SW-620 colon, with HCT-15 colon and in the experiment with MOLT-4 leukemia was over 100 µM each time. The same compound returned a TGI with NCI-H522 lung of over 100 µM.

With `CSC(=S)Nc1cccc(C)n1`, the TGI with HOP-62 NSCLC, in the experiment with SK-MEL-2 melanoma, with SK-MEL-5 melanoma, with MALME-3M melanoma, in the experiment on SK-MEL-28 melanoma and in the experiment with HCC-2998 colon was over 100 µM each time. Moreover, the TGI with UACC-257 melanoma, in the experiment with OVCAR-4 ovarian, in the experiment with SN12C renal, in the experiment on SW-620 colon, with HCT-15 colon and with MOLT-4 leukemia was over 100 µM in each case. This compound came in with a TGI in the experiment on NCI-H522 lung of over 100 µM.

Turning to `CCOC(=O)C1(F)S(=O)(=O)OCCOS1(=O)=O`, the TGI in the experiment with HOP-62 NSCLC, in the experiment on SK-MEL-2 melanoma, with SK-MEL-5 melanoma, in the experiment with MALME-3M melanoma, with SK-MEL-28 melanoma and in the experiment on HCC-2998 colon was over 100 µM in each case. Moreover, the TGI in the experiment with UACC-257 melanoma, with OVCAR-4 ovarian, in the experiment on SN12C renal, with SW-620 colon, in the experiment on HCT-15 colon and in the experiment on MOLT-4 leukemia was over 100 µM each time. This compound also displayed a TGI in the experiment with NCI-H522 lung of over 100 µM.

`O=C(CCC1C(=O)NC(=S)NC1=O)c1ccc2ccccc2c1`: the TGI with HOP-62 NSCLC, in the experiment with SK-MEL-2 melanoma, with SK-MEL-5 melanoma, with MALME-3M melanoma, with SK-MEL-28 melanoma and with HCC-2998 colon was over 100 µM in each case. Further, the TGI in the experiment with UACC-257 melanoma, in the experiment with OVCAR-4 ovarian, in the experiment on SN12C renal, with SW-620 colon, with HCT-15 colon and in the experiment with MOLT-4 leukemia was over 100 µM in each case. This compound also yielded a TGI with NCI-H522 lung of 31.1 µM.

Take `O=[N+]([O-])c1ccc(OC2CC3C4C=CC3C2C4)c([N+](=O)[O-])c1` (configuration not stated): the TGI in the experiment on HOP-62 NSCLC, in the experiment with SK-MEL-2 melanoma, in the experiment with SK-MEL-5 melanoma, in the experiment on MALME-3M melanoma, with SK-MEL-28 melanoma and with HCC-2998 colon was over 100 µM throughout. For the same compound, the TGI in the experiment with UACC-257 melanoma is over 100 µM; with OVCAR-4 ovarian, 76.3 µM and > 31.6 µM; in the experiment with SN12C renal, over 100 µM; with SW-620 colon, over 100 µM; in the experiment with HCT-15 colon it was over 100 µM; with MOLT-4 leukemia, > 100 µM and 25.7 µM. Also, the TGI in the experiment with NCI-H522 lung was over 100 µM. In addition, the GI50 was 90.4 µM and > 31.6 µM with SK-MEL-2 melanoma; over 100 µM with SK-MEL-28 melanoma; over 100 µM with HCC-2998 colon; 86.4 µM and > 31.6 µM in the experiment on SN12C renal; over 100 µM in the experiment on SW-620 colon; over 100 µM in the experiment on HCT-15 colon. In addition, the GI50 in the experiment on MOLT-4 leukemia is > 100 µM and 14.1 µM.

With `Oc1[nH]c2ccccc2c1N=NC(=S)Nc1ccccc1Cl`, the TGI was 37.9 µM in the experiment with HOP-62 NSCLC; 64.8 µM in the experiment with SK-MEL-2 melanoma; 15.8 µM in the experiment on SK-MEL-5 melanoma; 21.8 µM with MALME-3M melanoma; 75.6 µM in the experiment on SK-MEL-28 melanoma; over 100 µM in the experiment on HCC-2998 colon. Further, the TGI was 15.5 µM in the experiment with UACC-257 melanoma; 63.7 µM with OVCAR-4 ovarian; over 100 µM in the experiment on SN12C renal; 40.3 µM in the experiment on SW-620 colon; over 100 µM in the experiment on HCT-15 colon; 4.95 µM in the experiment with MOLT-4 leukemia. The compound further came in with a TGI with NCI-H522 lung of over 100 µM.

As for `Nc1c([N+](=O)[O-])nc(Cl)c2nncn12`, the TGI in the experiment on HOP-62 NSCLC, with SK-MEL-2 melanoma, in the experiment on SK-MEL-5 melanoma, in the experiment on MALME-3M melanoma, with SK-MEL-28 melanoma and in the experiment with HCC-2998 colon was over 100 µM in each case. For the same compound, the TGI is over 100 µM in the experiment with UACC-257 melanoma; over 100 µM in the experiment on OVCAR-4 ovarian; over 100 µM in the experiment on SN12C renal; over 100 µM with SW-620 colon; 42.4 µM with HCT-15 colon; over 100 µM with MOLT-4 leukemia. The same compound came in with a TGI in the experiment with NCI-H522 lung of over 100 µM.

Turning to `O=[N+]([O-])c1ccc(C(=S)Nc2ccccc2)o1`, the TGI in the experiment with HOP-62 NSCLC is 9.08 µM; in the experiment on SK-MEL-2 melanoma it was 7.95 µM; in the experiment with SK-MEL-5 melanoma, 23.2 µM; in the experiment on MALME-3M melanoma it was 9.3 µM; in the experiment on SK-MEL-28 melanoma it was 19.3 µM; in the experiment on HCC-2998 colon, 3.17 µM. Moreover, the TGI with UACC-257 melanoma came to 8.82 µM; with OVCAR-4 ovarian it was 6.47 µM; in the experiment on SN12C renal, 6.82 µM; in the experiment on SW-620 colon, 3.82 µM; in the experiment on HCT-15 colon, 7.07 µM; in the experiment with MOLT-4 leukemia, 11.7 µM. The compound further registered a TGI in the experiment on NCI-H522 lung of 3.11 µM.

As for `N#Cc1c2c(c(N)oc1=O)C(c1ccccc1)CC(=O)N2` (configuration not stated), the TGI in the experiment on HOP-62 NSCLC, with SK-MEL-2 melanoma, with SK-MEL-5 melanoma, in the experiment on MALME-3M melanoma, in the experiment with SK-MEL-28 melanoma and with HCC-2998 colon was over 100 µM throughout. Further, the TGI with UACC-257 melanoma, with OVCAR-4 ovarian, in the experiment on SN12C renal, with SW-620 colon, in the experiment with HCT-15 colon and in the experiment with MOLT-4 leukemia was over 100 µM throughout. Further, the TGI with NCI-H522 lung is over 100 µM.

The record behind these values is PubChem BioAssay (NCI).
